Laboratory results reported in the METLIN SMRT retention time set (Domingo-Almenara et al. 2019).

Test: gradient 5% acetonitrile 3 min, to 50% in 2 min, to 85% in 15 min, held 3 min, 100 µL/min
Conditions: column: Zorbax Extend-C18 2.1 x 50 mm; eluents: water / acetonitrile, 0.1% formic acid
Procedure, shortened: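 Each retention time is based on an adduct peak selected computationally and verified by manual inspection. Measurements used HPLC–quadrupole time-of-flight mass spectrometry in positive and negative ionization mode on mixtures of ~100 pure standards. Chromatography ran on a Zorbax Extend-C18 column (2.1 × 50 mm, 1.8 μm) at 100 μL/min with water and acetonitrile, each containing 0.1% formic acid, and dead and dwell volumes of 40 μL and 900 μL.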

| Structure (SMILES) | RP-LC retention time [s] |
| --- | --- |
| Cc1ccc(S(=O)(=O)N2C[C@@H](F)C[C@H]2C(=O)N2CCCCC2)c(C)c1 | 874 |
| O=C(Nc1ccc(-c2nc3ccccc3[nH]2)cc1)c1cccs1 | 579 |
| Cc1cc(C)n(CCC(=O)N2CC[C@@H]3CN(S(C)(=O)=O)[C@@H]3C2)n1 | 594 |
| CCn1c(CCNC(=O)c2ccc(OC)cc2)nc2cccnc21 | 607 |
| O=C(NCc1ccco1)c1cc(-c2cccnc2)nc2ccc(Cl)cc12 | 788 |
| O=C(NCCc1ccccc1)C1CCN(C(=O)c2ncn3c2COC(c2ccc(Cl)cc2)C3)CC1 (centres undefined) | 815 |
| CCS(=O)(=O)Nc1ccc(C2(C(=O)N3CCCC(C)C3)CCCCC2)cc1 (centres undefined) | 1010 |
| CCN(CC)C(=O)c1ccc2c(c1)N(CC(=O)NC)C(=O)C1CCCCN21 (centres undefined) | 684 |
| CS(=O)(=O)N1CCC(C(=O)Nc2ccc(C(F)(F)F)cc2)Oc2ccccc21 (centres undefined) | 1030 |
| CCn1nnc2ccc(-c3noc(-c4ccc(C#N)cc4)n3)cc21 | 971 |
| O=C(Nc1ccc(Cl)cc1)Nc1cccc2nsnc12 | 1100 |
| Cc1ccn2cc(-c3ccc(NC(=O)c4cccc(Br)c4)cc3)nc2n1 | 692 |
| O=C(Cn1nc(Cc2cccnc2)c2ccccc2c1=O)N1CC=C(c2ccccc2)CC1 | 680 |
| Clc1ccc(Cc2nc3nc4c(c(N5CCN(c6ccccn6)CC5)n3n2)CCCC4)cc1 | 718 |
| O=C(c1cccnc1)N1CCC2(CC1)Nc1cc(F)ccc1-n1cccc12 | 792 |
| CCN(CC)CCNC(=O)c1ccc(-c2nc(CCN(C)C(C)=O)no2)cc1 | 576 |
| N#Cc1cccc(NC(=O)C2CCN(S(=O)(=O)c3ccc4[nH]c(=O)ccc4c3)CC2)c1 | 706 |
| O=C(C1CCN(S(=O)(=O)c2cc(-c3noc(C4CCC4)n3)cs2)CC1)N1CCCC1 | 911 |
| O=C(NCc1cccs1)c1ccc2nc(CCc3ccccc3)oc2c1 | 979 |

| Structure (SMILES) | RP-LC retention time [s] |
| --- | --- |
| CC(=O)Nc1ccc(-c2noc(C3CCCN(C(=O)Cc4ccc(Br)cc4)C3)n2)cc1 (centres undefined) | 872 |
| CN1C(=O)[C@H]2CN(Cc3ccc(OC(F)(F)F)cc3)C[C@H]2C1=O | 666 |
| CC(=O)O[C@]1(C(C)=O)CC[C@H]2[C@@H]3CCC4=CC(=O)CCC4=C3[C@@H](c3ccc(N(C)C)cc3)C[C@@]21C | 874 |
| CCc1ccccc1NC(=O)c1c(O)c2cccnc2n(-c2ccccc2)c1=O | 1290 |
| CN1C2CCC1CC(OC(c1ccc(F)cc1)c1ccc(F)cc1)C2 (centres undefined) | 838 |
| Cn1cccc1C(=O)N1CC(Oc2cccc(-c3nc(-c4ccccc4)no3)c2)C1 | 1220 |
| Cn1c(=O)c2c(ncn2CC(=O)N2CCC(c3nc(C4CCOCC4)no3)CC2)n(C)c1=O | 611 |
| COc1ccc(N2C(=O)C3N=NN(c4ccc(F)c(Cl)c4)C3C2=O)cc1 (centres undefined) | 1010 |
| Cc1cccc(-c2noc(-c3nnn(Cc4nc(-c5cccc(Cl)c5)oc4C)c3C)n2)c1 | 1000 |
| c1cc(-c2noc(-c3ccoc3)n2)cc(-c2ccn[nH]2)c1 | 839 |
| CN1C(=O)NC2(CCN(S(=O)(=O)c3cccs3)CC2)C1=O | 640 |
| c1ccc(-c2nc3cc(-c4noc(-c5ccc6nc[nH]c6c5)n4)ccc3o2)cc1 | 888 |
| C=CCn1c(=O)c2ccccc2n(Cc2nc(-c3ccc(OC(F)(F)F)cc3)no2)c1=O | 1140 |
| Cc1cc(C)nc(N2CCN(C)CC2)n1 | 556 |
| COCCCN(CC(=O)N1CCc2sccc2C1COc1ccc(F)cc1)C(C)=O (centres undefined) | 802 |
| O=C(CCc1csc(NC(=O)c2ccc(F)cc2)n1)Nc1ccc(-n2cnnn2)cc1 | 741 |
| COCC(=O)N1CCC2(CCC2O)CC1 (centres undefined) | 577 |
| Cc1c(S(=O)(=O)NCC(c2cccnc2)c2cn(C)c3ccccc23)cnn1C(F)F (centres undefined) | 698 |
| COc1ccc(NC(=O)c2noc3c2CCCCC3)cc1 | 989 |

| Structure (SMILES) | RP-LC retention time [s] |
| --- | --- |
| CCN(CC)S(=O)(=O)c1cccc(-c2nnc(-c3ccccc3OC)o2)c1 | 950 |
| Cc1ccc(NC(=O)Nc2ccc3nncn3c2)cc1F | 723 |
| CCc1noc(-c2ccc(SCC(=O)N3CCC(C)CC3)nc2)n1 | 975 |
| O=C(NCCCN1CCOCC1)c1ccc2c(c1)NC(=O)C1CCCCN21 (centres undefined) | 582 |
| CCCCN1CCN(C(=O)CN2CCN(Cc3ccc(F)cc3Cl)C2=O)CC1 | 641 |
| CCn1ccc2sc(C)c(C(=O)NCc3ccc(F)cc3)c2c1=O | 798 |
| O=C(NCCN1CCOCC1)c1nc(-c2ccnc(N3CCCCCC3)c2)no1 | 564 |
| CCOC(=O)C1CCC(CNC(=O)Nc2cccn3cnnc23)CC1 (centres undefined) | 654 |
| CCOC(=O)c1cc([N+](=O)[O-])sc1NC(=O)CCCS(=O)(=O)c1ccc(F)cc1 | 965 |
| O=C1CC2(CCCC2)CC(=O)N1CCCCNCC1COc2ccccc2O1 (centres undefined) | 758 |
| O=C(CCCCn1c(=O)c2ccccc2n(Cc2ccccc2)c1=O)NCc1cccs1 | 847 |
| O=c1ccn(-c2ccc(F)c(F)c2)nc1-c1nc(-c2ccc(F)cc2)no1 | 904 |
| Cc1ccc(-c2nnc(Cc3nc(-c4ccc(OC(C)C)cc4)no3)o2)cc1F | 1190 |
| CCS(=O)(=O)N1CCC(N2C(=O)[C@H](OCCOC)[C@@H]2c2ccncc2)CC1 | 561 |
| CCNS(=O)(=O)c1cccnc1Nc1ccc(C)c(Cl)c1 | 1110 |
| Cc1cccc(N2CCN(Cc3nc(-c4ccc(N5CCCC5)nc4)no3)CC2)c1C | 787 |
| COc1ccc(CN(Cc2ccccc2)Cc2cc(=O)n3ccc(C)cc3n2)cc1OC | 662 |
| Cc1cc(C)cc(NC(=O)C2CCN(c3cncnc3N3CCOCC3)CC2)c1 | 657 |

More lines, now with the values ahead:

| RP-LC retention time [s] | Structure (SMILES) |
| --- | --- |
| 1090 | Cc1nn(-c2ccc(-c3ccccc3)nn2)c(C)c1S(=O)(=O)N1CCCCC1 |
| 576 | CC(C(=O)NCc1nc2ccccc2[nH]1)n1nc(-c2cccs2)ccc1=O (centres undefined) |
| 975 | CC1=NS(=O)(=O)N(C)C=C1C(=O)OCc1noc(-c2ccccc2Cl)n1 |
| 700 | CCCNC(=O)C1CCCN(c2ccc(SCC(=O)Nc3cc(F)ccc3C)nn2)C1 (centres undefined) |
| 683 | CCOc1ccccc1CNc1nc2ccncc2n(CC)c1=O |
| 902 | O=C(O)CCC(=O)Nc1sc2c(c1C(=O)Nc1ccccc1)CCC2 |
| 590 | CC1Cn2cc(C(=O)NCCN3CCN(C)CC3)c(=O)c3c(Cl)ccc(c32)O1 (centres undefined) |
| 753 | Cc1noc(C)c1CNC(=O)c1nccc2ccccc12 |
| 793 | Cc1ccc(CNC(=O)C2CCCN(c3ncnc4c3nc3n4CCCCC3)C2)cc1 (centres undefined) |
| 947 | CC1(C(=O)NCc2ccccc2)CCCN(C(=O)Nc2ccccc2Br)C1 (centres undefined) |
| 797 | CCOCCCNC(=O)c1cc2n(n1)CCCN(Cc1ccc(Cl)cc1)C2=O |
| 788 | CCOc1ccc(S(=O)(=O)N2CCCC(C(=O)NC)C2)cc1C (centres undefined) |
| 828 | COCCN1C(=O)c2ccccc2C(C(=O)Nc2cccc(C)n2)C12CCCCC2 (centres undefined) |
| 758 | COc1cccc2sc(N(C)CC(=O)N3CCn4c3nc3ccccc34)nc12 |
| 659 | CC(C)NC(=O)NC1CCN(c2ccc(F)cc2)C1=O (centres undefined) |
| 590 | Cc1nnc2n1CCC(NS(=O)(=O)c1ccccc1F)CC2 (centres undefined) |
| 913 | CCCCC(=O)N1CCN(c2nc3ccccc3cc2-c2noc(C)n2)CC1 |

| RP-LC retention time [s] | Structure (SMILES) |
| --- | --- |
| 720 | CCn1c(=O)c(C(=O)NCc2ccc(OC)cc2)nc2cccnc21 |
| 866 | CCc1ccc(C2=C(C)C(N3CCCN(C(=O)NC(C)CC)CC3)=NS2(=O)=O)cc1 (centres undefined) |
| 822 | CC1=C(c2ccc(C)cc2)S(=O)(=O)N=C1N1CCCN(C(=O)NCC(C)C)CC1 |
| 665 | Cc1cc(=O)n(CC(=O)NC(C)C)c(N2CCc3ccccc3C2)n1 |
| 626 | CC(C)N1CCN(C(=O)c2cnc(-c3ccccc3)nc2-c2ccncc2)CC1 |
| 593 | O=C(NCC(c1ccc2c(c1)OCO2)N1CCN(c2ccccc2F)CC1)c1cnccn1 (centres undefined) |
| 1020 | Cc1cccc(-c2noc(CCn3nc(-c4ccccc4)ccc3=O)n2)c1 |
| 1300 | COc1ccc(-c2csc(C(=O)n3nc(C)cc3C)c2-n2cccc2)cc1 |
| 912 | O=S(=O)(c1ccccc1Cl)N1CCC(OCc2noc(C3CCCO3)n2)CC1 (centres undefined) |
| 645 | CCSc1nc2c(s1)c(=O)n(-c1ccccc1)c(=O)n2CC(=O)NC1CCCCC1 |
| 1120 | CCCc1cc(C(=O)N2CCCC2c2ccc(OC)cc2)no1 (centres undefined) |
| 808 | COc1cccc(OCC2c3ccsc3CCN2C(=O)CN(C(C)=O)C(C)C)c1 (centres undefined) |
| 635 | O=C(CCCn1c(=O)c2cccn2c2ccc(F)cc21)NCCN1CCCCCC1 |
| 751 | CC(C)n1c(-c2cccc(C(=O)NCc3ccco3)c2)nc2cccnc21 |
| 880 | Cc1ccc(S(=O)(=O)N2CCc3nn(CC(C)C)c(=O)n3CC2)cc1Cl |
| 864 | Cc1cc(N2CCN(S(=O)(=O)c3cc(F)ccc3C)CC2)nc(NC2CCCCC2)n1 |
